In the supplement of paper PMC10627819:

What was measured:
Settings in all cases: main component drawn
S. aureus Newman [1] = assay: fitness (endpoint OD595 vs no drug) (fraction); higher = more growth
Summary of the method: (§1)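 Fitness is computed from the optical density at which cultures reach stationary phase, divided by the robust mean of no-drug control wells. Any value above 1 is set to 1. Cultures started at OD595 0.01 in 384-well plates with TSB, LB Lennox or CY at 37 °C, and OD595 was read every 30 min for 14 h against a first-reading background.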

B. subtilis 168 [2] = assay: Bliss interaction score (quartile over a dose matrix) (fitness difference); higher = more antagonism (negative = synergy)
Summary of the method: (§2)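 The Bliss score is observed fitness minus expected fitness, where the expected value is the product of single-drug fitness values inferred from combination data. Fitness is OD595 at entry into stationary phase normalised to the plate's robust no-drug mean and capped at 1. Scores are reported as quartiles spanning technical, biological and donor/recipient replicates.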

S. aureus DSM 20231 = assay: as above
Summary of the method: as §2

S. aureus Newman [3] = assay: as above
Summary of the method: as §2

S. pneumoniae D39V [4] = assay: as above
Summary of the method: as §2

B. subtilis 168 [5] = assay: fitness (endpoint OD595 vs no drug) (fraction); higher = more growth
Summary of the method: as §1

S. pneumoniae D39V [6] = assay: as above
Summary of the method: as §1
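For Bliss interaction score (quartile over a dose matrix) in this document: first quartile when negative (synergy) and third quartile when positive (antagonism).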
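For fitness (endpoint OD595 vs no drug) in this document: OD595 on entry to stationary phase over no-drug wells; at most 1.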

CNC(C)C1CCC(N)C(OC2C(N)CC(N)C(OC3OCC(C)(O)C(NC)C3O)C2O)O1 (stereo not drawn) [Gentamicin] + CCCCCCCCCC(=O)N[C@@H]1[C@H]([C@@H]([C@H](O[C@H]1OC2=C3C=C4C=C2OC5=C(C=C(C=C5)[C@H]([C@H]6C(=O)N[C@@H](C7=C(C(=CC(=C7)O)OC8[C@H]([C@H]([C@@H]([C@H](O8)CO)O)O)O)C9=C(C=CC(=C9)[C@H](C(=O)N6)NC(=O)[C@@H]4NC(=O)[C@@H]1C2=CC(=CC(=C2)OC2=C(C=CC(=C2)[C@H](C(=O)N[C@H](CC2=CC(=C(O3)C=C2)Cl)C(=O)N1)N)O)O)O)C(=O)O)O[C@H]1[C@@H]([C@H]([C@@H]([C@H](O1)CO)O)O)NC(=O)C)Cl)CO)O)O [Teicoplanin]
fitness, S. aureus Newman [1], one replicate
Settings	first compound 0.375 µg/mL	first compound 0.75 µg/mL	first compound 1 µg/mL	first compound 1.5 µg/mL	first compound 2 µg/mL	first compound 4 µg/mL
partner 0.1562 µg/mL	≥ 1	≥ 1	–	≥ 1	–	–
partner 0.3125 µg/mL	≥ 1	≥ 1	–	≥ 1	–	–
partner 0.62 µg/mL	–	–	0.748	–	0.37	0.0704
partner 0.625 µg/mL	0.861	0.851	–	0.875	–	–
partner 1.24 µg/mL	–	–	0.616	–	0.0206	0.0307
partner 2.48 µg/mL	–	–	0.0707	–	0.0793	0.0765

fitness, S. aureus Newman [1]
Settings	first compound 0.5 µg/mL	first compound 1 µg/mL	first compound 2 µg/mL
partner 0.1562 µg/mL	≥ 1	≥ 1	≥ 1
partner 0.3125 µg/mL	≥ 1	≥ 1	≥ 1
partner 0.625 µg/mL	≥ 1	≥ 1	≥ 1

Settings	Bliss interaction score
B. subtilis 168 [2]	-0.13
S. aureus DSM 20231	-0.0694
S. aureus Newman [3]	-0.0337
S. pneumoniae D39V [4]	0.0694

CNC(C)C1CCC(N)C(OC2C(N)CC(N)C(OC3OCC(C)(O)C(NC)C3O)C2O)O1 (stereo not drawn) [Gentamicin] + CCC[C@@H]1C[C@@H](C(=O)N[C@@H]([C@H]2O[C@H](SC)[C@H](O)[C@@H](O)[C@H]2O)[C@@H](C)O)N(C)C1 [Lincomycin]
fitness
Settings	partner 0.1 µg/mL	partner 0.2 µg/mL	partner 0.215 µg/mL	partner 0.4 µg/mL	partner 0.43 µg/mL	partner 0.8 µg/mL	partner 0.86 µg/mL
B. subtilis 168 [5], first compound 0.0625 µg/mL	0.851	0.858	–	0.911	–	–	–
B. subtilis 168 [5], first compound 0.25 µg/mL	0.038	0.0459	–	0.121	–	–	–
S. pneumoniae D39V [6], first compound 2 µg/mL	–	0.465	0.858	0.285	0.795	0.0324	0.558
S. pneumoniae D39V [6], first compound 4 µg/mL	–	0.455	0.843	0.257	0.716	0.0339	0.397
S. pneumoniae D39V [6], first compound 8 µg/mL	–	0.389	0.834	0.212	0.741	0.0377	0.41

fitness, B. subtilis 168 [5], one replicate
Settings	first compound 0.0625 µg/mL	first compound 0.125 µg/mL	first compound 0.25 µg/mL
partner 0.8 µg/mL	0.989	0.881	0.32
partner 1.6 µg/mL	0.921	0.895	0.367

Settings	Bliss interaction score
B. subtilis 168 [2]	0.1
S. aureus DSM 20231	0.106
S. aureus Newman [3]	0.0735
S. pneumoniae D39V [4]	-0.0859

CNC(C)C1CCC(N)C(OC2C(N)CC(N)C(OC3OCC(C)(O)C(NC)C3O)C2O)O1 (stereo not drawn) [Gentamicin] + CN(C)C(=O)C(CCN1CCC(O)(c2ccc(Cl)cc2)CC1)(c1ccccc1)c1ccccc1 [Loperamide]
Settings	fitness
B. subtilis 168 [5], first compound 0.0625 µg/mL, partner 100 µg/mL	0.0528
B. subtilis 168 [5], first compound 0.125 µg/mL, partner 25 µg/mL	0.0373
B. subtilis 168 [5], first compound 0.125 µg/mL, partner 50 µg/mL	0.0589
B. subtilis 168 [5], first compound 0.125 µg/mL, partner 100 µg/mL	0.0432
B. subtilis 168 [5], first compound 0.25 µg/mL, partner 25 µg/mL	0.0438
B. subtilis 168 [5], first compound 0.25 µg/mL, partner 50 µg/mL	0.0483
B. subtilis 168 [5], first compound 0.25 µg/mL, partner 100 µg/mL	0.0409
S. pneumoniae D39V [6], first compound 2 µg/mL, partner 17.14 µg/mL	0.968
S. pneumoniae D39V [6], first compound 2 µg/mL, partner 20 µg/mL	≥ 1
S. pneumoniae D39V [6], first compound 2 µg/mL, partner 34.28 µg/mL	0.967
S. pneumoniae D39V [6], first compound 2 µg/mL, partner 40 µg/mL	0.994
S. pneumoniae D39V [6], first compound 2 µg/mL, partner 80 µg/mL	0.193
S. pneumoniae D39V [6], first compound 4 µg/mL, partner 17.14 µg/mL	≥ 1
S. pneumoniae D39V [6], first compound 4 µg/mL, partner 20 µg/mL	≥ 1
S. pneumoniae D39V [6], first compound 4 µg/mL, partner 34.28 µg/mL	0.98
S. pneumoniae D39V [6], first compound 4 µg/mL, partner 40 µg/mL	≥ 1
S. pneumoniae D39V [6], first compound 8 µg/mL, partner 17.14 µg/mL	0.984
S. pneumoniae D39V [6], first compound 8 µg/mL, partner 20 µg/mL	≥ 1
S. pneumoniae D39V [6], first compound 8 µg/mL, partner 34.28 µg/mL	0.916
S. pneumoniae D39V [6], first compound 8 µg/mL, partner 40 µg/mL	≥ 1

S. pneumoniae D39V [6], partner 68.57 µg/mL, one replicate
Settings	fitness
first compound 2 µg/mL	≥ 1
first compound 4 µg/mL	0.924
first compound 8 µg/mL	0.937

Settings	Bliss interaction score
B. subtilis 168 [2]	-0.159
S. aureus DSM 20231	0.0997
S. aureus Newman [3]	0.0802
S. pneumoniae D39V [4]	0.0792

CNC(C)C1CCC(N)C(OC2C(N)CC(N)C(OC3OCC(C)(O)C(NC)C3O)C2O)O1 (stereo not drawn) [Gentamicin] + C[C@H]1COc2c(N3CCN(C)CC3)c(F)cc3c(=O)c(C(=O)O)cn1c23 [Levofloxacin]
fitness, B. subtilis 168 [5], one replicate
Settings	first compound 0.0625 µg/mL	first compound 0.125 µg/mL	first compound 0.25 µg/mL
partner 0.001 µg/mL	0.868	0.126	0.0524
partner 0.0078 µg/mL	0.98	0.977	0.259

Settings	fitness
B. subtilis 168 [5], first compound 0.0625 µg/mL, partner 0.002 µg/mL	0.89
B. subtilis 168 [5], first compound 0.0625 µg/mL, partner 0.0039 µg/mL	0.89
B. subtilis 168 [5], first compound 0.0625 µg/mL, partner 0.0312 µg/mL	0.0381
B. subtilis 168 [5], first compound 0.0625 µg/mL, partner 0.0625 µg/mL	0.0442
B. subtilis 168 [5], first compound 0.0625 µg/mL, partner 0.125 µg/mL	0.0374
B. subtilis 168 [5], first compound 0.125 µg/mL, partner 0.0312 µg/mL	0.0387
B. subtilis 168 [5], first compound 0.125 µg/mL, partner 0.0625 µg/mL	0.046
B. subtilis 168 [5], first compound 0.125 µg/mL, partner 0.125 µg/mL	0.0388
B. subtilis 168 [5], first compound 0.25 µg/mL, partner 0.002 µg/mL	0.206
B. subtilis 168 [5], first compound 0.25 µg/mL, partner 0.0039 µg/mL	0.163
B. subtilis 168 [5], first compound 0.25 µg/mL, partner 0.0312 µg/mL	0.0407
B. subtilis 168 [5], first compound 0.25 µg/mL, partner 0.0625 µg/mL	0.0447
B. subtilis 168 [5], first compound 0.25 µg/mL, partner 0.125 µg/mL	0.0485
S. pneumoniae D39V [6], first compound 2 µg/mL, partner 0.1725 µg/mL	0.98
S. pneumoniae D39V [6], first compound 2 µg/mL, partner 0.2 µg/mL	0.901
S. pneumoniae D39V [6], first compound 2 µg/mL, partner 0.345 µg/mL	0.914
S. pneumoniae D39V [6], first compound 2 µg/mL, partner 0.4 µg/mL	0.75
S. pneumoniae D39V [6], first compound 2 µg/mL, partner 0.69 µg/mL	0.636
S. pneumoniae D39V [6], first compound 2 µg/mL, partner 0.8 µg/mL	0.213
S. pneumoniae D39V [6], first compound 4 µg/mL, partner 0.1725 µg/mL	0.972
S. pneumoniae D39V [6], first compound 4 µg/mL, partner 0.2 µg/mL	0.874
S. pneumoniae D39V [6], first compound 4 µg/mL, partner 0.345 µg/mL	0.902
S. pneumoniae D39V [6], first compound 4 µg/mL, partner 0.4 µg/mL	0.723
S. pneumoniae D39V [6], first compound 4 µg/mL, partner 0.69 µg/mL	0.625
S. pneumoniae D39V [6], first compound 4 µg/mL, partner 0.8 µg/mL	0.21
S. pneumoniae D39V [6], first compound 8 µg/mL, partner 0.1725 µg/mL	0.98
S. pneumoniae D39V [6], first compound 8 µg/mL, partner 0.2 µg/mL	0.865
S. pneumoniae D39V [6], first compound 8 µg/mL, partner 0.345 µg/mL	0.912
S. pneumoniae D39V [6], first compound 8 µg/mL, partner 0.4 µg/mL	0.671
S. pneumoniae D39V [6], first compound 8 µg/mL, partner 0.69 µg/mL	0.438
S. pneumoniae D39V [6], first compound 8 µg/mL, partner 0.8 µg/mL	0.179

Settings	Bliss interaction score
B. subtilis 168 [2]	-0.0837
S. aureus DSM 20231	0.0527
S. aureus Newman [3]	0.0894
S. pneumoniae D39V [4]	-0.123
